Measured values from patent publication US12195427B2, “MASP-2 inhibitors and methods of use” (priority 2018, dated 2025).
Each block holds one compound with its values, some of them ahead of it.

How the values were obtained:
Lectin Pathway = Lectin Pathway Activation Assay in Human Serum (mannan-coated ELISA, C3c detection); assay type: biochemical; settings: 1% human serum
Experimental: Microtiter ELISA plate was coated with mannan from Saccharomyces cerevisiae (Sigma-Aldrich, M7504) for overnight at 4° C. in coating buffer [15 mM Na2CO3, 35 mM NaHCO3].

MASP-2 CCP2-SP = MASP-2 CCP2-SP (Homo sapiens (Human), UniProt O00187); test: MASP-2 co-crystallization, X-ray crystallography and structure analysis (H-bonds, van der Waals contacts); design: van der Waals contact distance, MASP-2 HIS 483 atom CD2 / van der Waals contact distance, MASP-2 HIS 483 atom NE2 / van der Waals contact distance, SER 654 C to compound atom / van der Waals contact distance, SER 654 O to compound atom / van der Waals contact distance, TRP 655 C to compound atom / van der Waals contact distance, MASP-2 GLY 528 atom CA / van der Waals contact distance TRP 655 atom CZ3 / van der Waals contact distance TRP 655 atom N / van der Waals contact distance TRP 655 atom CE3 / van der Waals contact distance GLY 656 atom C / van der Waals contact distance GLY 656 atom CA / van der Waals contact distance GLY 656 atom O / van der Waals contact distance, MASP-2 TYR 607 atom CD1 / van der Waals contact distance, MASP-2 PRO 606 atom O / d(C3,CA1) / d(CA1,N1)2 / d(H4,O1) / d(H4,O2) / d(O1,O2) / d(CA1,O2) / d(CA6,O1) / d(CA6,O2) / d(CA1,C5) / d(O2,H3) / d(N2,C2) / d(CA5,N2) / d(N2,C4) / d(N2,C6) / d(N2,CA3) / d(N2,O3) / d(O4,H2): unit not given beside the values; settings: for H-bond distance to MASP-2 GLY 656 atom N: GLY 656 N; for H-bond distance to MASP-2 GLY 656 atom O: GLY 656 O; for H-bond distance to MASP-2 SER 654 atom O: SER 654 O; for H-bond distance to MASP-2 SER 657 atom O: SER 657 O; for van der Waals contact distance, MASP-2 amino acid atom to compound atom: ARG 630;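 for Ligand-pharmacophore element distance, pharmacophore element C2: distance from averaged pharmacophore element to bound ligand; missing value means element absent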;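 for Ligand-pharmacophore element distance, pharmacophore element C3: distance from averaged pharmacophore element to bound ligand; missing value means element absent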;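 for Ligand-pharmacophore element distance, pharmacophore element C4: distance from averaged pharmacophore element to bound ligand; missing value means element absent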;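 for Ligand-pharmacophore element distance, pharmacophore element C5: distance from averaged pharmacophore element to bound ligand; missing value means element absent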
MASP-2 CCP2-SP, sequence (O00187 445-686): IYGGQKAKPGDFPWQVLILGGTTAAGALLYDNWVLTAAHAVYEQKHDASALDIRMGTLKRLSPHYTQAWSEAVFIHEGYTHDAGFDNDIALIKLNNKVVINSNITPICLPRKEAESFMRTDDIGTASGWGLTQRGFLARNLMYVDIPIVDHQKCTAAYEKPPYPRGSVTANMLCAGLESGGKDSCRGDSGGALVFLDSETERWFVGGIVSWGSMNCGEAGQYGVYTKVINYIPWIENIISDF
MASP-2 CCP2-SP, sequence (O00187 364-432 partner): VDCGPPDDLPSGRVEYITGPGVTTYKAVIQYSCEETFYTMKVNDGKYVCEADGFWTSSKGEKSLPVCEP
In short: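 Inhibitor complexes were obtained by soaking crystals of E. coli-derived human MASP-2 CCP2-SP. Synchrotron diffraction at 1.0 wavelength, molecular replacement and partial refinement gave the models; one pose per ligand was chosen for contact analysis.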

[1] = Table A5-1 pharmacophore: distance between elements, S2/S1 region
[2] = Table A5-2 pharmacophore distance, S3/S4 region
[3] = Table A7-1, between pharmacophore elements of the bound compound
[4] = Table A7-2, between pharmacophore elements of the bound compound

IC50 (Lectin Pathway): 500 to 5000 nM
H-bond distance to MASP-2 GLY 656 atom N (MASP-2 CCP2-SP; Table A1 (H-Bonds)): 3.12
H-bond distance to MASP-2 GLY 656 atom O (MASP-2 CCP2-SP; Table A1 (H-Bonds)): 2.82
H-bond distance to MASP-2 SER 628 atom OG (MASP-2 CCP2-SP; Table A1 (H-Bonds), SER 628 OG): 3.17
H-bond distance to MASP-2 SER 654 atom O (MASP-2 CCP2-SP; Table A1 (H-Bonds)): 2.82
H-bond distance to MASP-2 SER 657 atom O (MASP-2 CCP2-SP; Table A1 (H-Bonds)): 2.91
van der Waals contact distance, MASP-2 HIS 483 atom CD2 (MASP-2 CCP2-SP; Table A2-1): 3.61
van der Waals contact distance, MASP-2 amino acid atom to compound atom (MASP-2 CCP2-SP; Table A2-9 second part, AA atoms N, NE, NH1): 3.83
van der Waals contact distance GLY 656 atom C (MASP-2 CCP2-SP; Table A2-13, MASP-2 GLY 656 C): 3.73
van der Waals contact distance GLY 656 atom CA (MASP-2 CCP2-SP; Table A2-13, MASP-2 GLY 656 CA): 3.86
van der Waals contact distance TRP 655 atom N (MASP-2 CCP2-SP; Table A2-13, MASP-2 TRP 655 N): 3.81
van der Waals contact distance GLY 656 atom N (MASP-2 CCP2-SP; Table A2-14, MASP-2 GLY 656 N): 3.78
van der Waals contact distance SER 657 atom C (MASP-2 CCP2-SP; Table A2-14, MASP-2 SER 657 C, columns c12-c13 (inferred)): 3.82
Compound: C[C@H](NC(=O)c1cc(-c2ccccc2)c[nH]1)C(=O)NCc1ccc(C(=N)N)cc1 [compound 1030]

Compound: Cc1nc(N)ccc1CNC(=O)[C@H](C)NC(=O)[C@H]1C[C@H](Cc2ccc(-c3ccccc3)cc2)CN1 [compound 1351, (2R,4S)-4-([1,1′-Biphenyl]-4-ylmethyl)-N—((S)-1-(((6-amino-2-methylpyridin-3-yl)methyl)amino)-1-oxopropan-2-yl)pyrrolidine-2-carboxamide]
IC50 (Lectin Pathway): < 50 nM
H-bond distance to MASP-2 ASP 627 atom OD2 (MASP-2 CCP2-SP; Table A1 (H-Bonds), ASP 627 OD2): 3.22
H-bond distance to MASP-2 GLY 656 atom N (MASP-2 CCP2-SP; Table A1 (H-Bonds)): 3.25
H-bond distance to MASP-2 GLY 656 atom O (MASP-2 CCP2-SP; Table A1 (H-Bonds)): 2.76
H-bond distance to MASP-2 SER 654 atom O (MASP-2 CCP2-SP; Table A1 (H-Bonds)): 2.98
H-bond distance to MASP-2 SER 657 atom O (MASP-2 CCP2-SP; Table A1 (H-Bonds)): 2.8
van der Waals contact distance, MASP-2 HIS 483 atom CD2 (MASP-2 CCP2-SP; Table A2-1): 3.66
van der Waals contact distance, MASP-2 HIS 483 atom NE2 (MASP-2 CCP2-SP; Table A2-1): 3.9
van der Waals contact distance, MASP-2 ALA 527 atom CA (MASP-2 CCP2-SP; Table A2-2): 3.71
van der Waals contact distance, MASP-2 PHE 529 atom CE1 (MASP-2 CCP2-SP; Table A2-3): 3.8
van der Waals contact distance, MASP-2 amino acid atom to compound atom (MASP-2 CCP2-SP; Table A2-9, AA atoms CG, CZ): 3.81
van der Waals contact distance, VAL 653 CG1 to compound atom (MASP-2 CCP2-SP; Table A2-11): 3.3
van der Waals contact distance, TRP 655 CA to compound atom (MASP-2 CCP2-SP; Table A2-12): 3.34
Ligand-pharmacophore element distance, pharmacophore element C2 (MASP-2 CCP2-SP; Table A4-1, element C2): 0
Ligand-pharmacophore element distance, pharmacophore element C3 (MASP-2 CCP2-SP; Table A4-1, element C3): 0.12
Ligand-pharmacophore element distance, pharmacophore element C4 (MASP-2 CCP2-SP; Table A4-1, element C4): 0
Ligand-pharmacophore element distance, pharmacophore element C5 (MASP-2 CCP2-SP; Table A4-1, element C5): 0
Ligand-pharmacophore element distance, pharmacophore element C6 (MASP-2 CCP2-SP; Table A4-1, element C6): 0
Ligand-pharmacophore element distance, pharmacophore element C7 (MASP-2 CCP2-SP; Table A4-1, element C7): 0
Ligand-pharmacophore element distance, pharmacophore element CA1 (MASP-2 CCP2-SP; Table A4-1, element CA1): 0.57
Ligand-pharmacophore element distance, pharmacophore element CA2 (MASP-2 CCP2-SP; Table A4-1, element CA2): 0.8
Ligand-pharmacophore element distance, pharmacophore element CA3 (MASP-2 CCP2-SP; Table A4-1, element CA3): 0
Ligand-pharmacophore element distance, pharmacophore element CA4 (MASP-2 CCP2-SP; Table A4-1, element CA4): 3.3
Ligand-pharmacophore element distance, pharmacophore element CA5 (MASP-2 CCP2-SP; Table A4-1, element CA5): 0
Ligand-pharmacophore element distance, pharmacophore element CA6 (MASP-2 CCP2-SP; Table A4-1, element CA6): 0
d(C3,CA1) (MASP-2 CCP2-SP; [1]): 2.85
d(CA1,N1)2 (MASP-2 CCP2-SP; [1]): 1.38
d(CA1,O1) (MASP-2 CCP2-SP; [1]): 4.47
d(CA1,O2) (MASP-2 CCP2-SP; [1]): 3.79
d(H4,O1) (MASP-2 CCP2-SP; [1]): 4.47
d(H4,O2) (MASP-2 CCP2-SP; [1]): 3.70
d(O1,O2) (MASP-2 CCP2-SP; [1]): 3.38
d(N2,CA2) (MASP-2 CCP2-SP; [2]): 6.12
d(O2,H3) (MASP-2 CCP2-SP; [2]): 4.26
d(O2,N2) (MASP-2 CCP2-SP; [2]): 2.76
a(C3, CA1, O1) (MASP-2 CCP2-SP; Table A6-1 pharmacophore angle): 149.86
a(CA1, O1, O2) (MASP-2 CCP2-SP; Table A6-1 pharmacophore angle): 103.11
a(O1, O2, H4) (MASP-2 CCP2-SP; Table A6-1 pharmacophore angle): 132.32
a(N1, CA1, O1) b) (MASP-2 CCP2-SP; Table A6-1 pharmacophore angle, Methyl-amino-pyridine compounds): 173.60
a(O1, O2, H3) (MASP-2 CCP2-SP; Table A6-2 pharmacophore angle): 148.60
a(O1, O2, N2) (MASP-2 CCP2-SP; Table A6-2 pharmacophore angle): 141.59
a(O2, N2, CA2) (MASP-2 CCP2-SP; Table A6-2 pharmacophore angle): 158.04
Pharmacophore torsion angle a(C3, CA1, O1, H4) (MASP-2 CCP2-SP; [3]): 26.55
Pharmacophore torsion angle a(H4, O1, O2, H3) (MASP-2 CCP2-SP; [3]): 51.88
Pharmacophore torsion angle a(H4, O1, O2, N2) (MASP-2 CCP2-SP; [3]): 138.69
Pharmacophore torsion angle a(N1, CA1, O1, H4) (MASP-2 CCP2-SP; [3]): −0.13
Pharmacophore torsion angle a(O1, H4, O2, CA1) (MASP-2 CCP2-SP; [3]): −83.97
Pharmacophore torsion angle a(O1, O2, N2, CA2) (MASP-2 CCP2-SP; [4]): 121.52
Pharmacophore torsion angle a(O1, O2, N2, CA4) (MASP-2 CCP2-SP; [4]): 119.61
